The structures appear in SMILES notation.

This test has as its target T1, Human BCL-XL protein (N-terminal HiBiT tagged BCL-XL in HT1080 cells) (Homo sapiens, UniProt Q07817).
T1 construct: expressed in transfected cells; host or cells: HT-1080 (ATCC CCL-121), stably transduced with lentivirus pLV-UBC-N-HiBiT-BCL-XL-PGK-puro and selected with puromycin
Description: HiBiT based degradation assay. The class given is cell-based. The conditions noted are these: HT1080 cells expressing HiBiT-BCL-XL, 24 h; for Ymin (24 h): BCL-XL degradation normalized with DMSO control; for DC50: BCL-XL degradation, read-out: EC50 (24 h). A digest of the protocol: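 This HiBiT degradation assay measured loss of BCL-XL in HT1080 cells that stably express an N-terminal HiBiT-BCL-XL fusion delivered by lentivirus. Cells were added to compound-spotted 384-well plates, and luminescence was read on a PHERAstar FSX reader. Signal was expressed relative to DMSO controls, curves were fitted by four-parameter logistic regression, and for hook-shaped curves the Ymin point served as the bottom plateau when calculating EC50.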
A general note: The HiBiT peptide binds its large partner to form an active luciferase.

T1 sequence (Q07817 whole entry): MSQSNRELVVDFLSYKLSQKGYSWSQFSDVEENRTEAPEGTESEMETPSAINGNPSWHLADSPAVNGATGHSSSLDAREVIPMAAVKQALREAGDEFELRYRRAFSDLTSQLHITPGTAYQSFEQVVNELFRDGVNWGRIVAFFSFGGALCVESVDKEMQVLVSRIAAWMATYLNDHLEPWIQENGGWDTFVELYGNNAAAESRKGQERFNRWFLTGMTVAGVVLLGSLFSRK

Consider `Cc1c(OCCCC2CCN(CC(=O)Nc3cc4c(cc3F)c(C3CCC(=O)NC3=O)nn4C)CC2)cccc1-c1ccc(N2CCc3cccc(C(=O)Nc4nc5ccccc5s4)c3C2)nc1C(=O)O` (stereo not shown) [Compound 295, 6-[8-(1,3-benzothiazol-2-ylcarbamoyl)-3,4-dihydro-1H-isoquinolin-2-yl]-3-[3-[3-[1-[2-[[3-(2,6-dioxo-3-piperidyl)-5-fluoro-1-methyl-indazol-6-yl]amino]-2-oxo-ethyl]-4-piperidyl]propoxy]-2-methyl-phenyl]pyridine-2-carboxylic acid], for which the “Ymin (24 h)” value is recorded as “B (50% ≤ Ymin < 70%)” and the DC50 fell in the range of 100 to 1000 nM.
The corresponding values for `Cc1c(O[C@H]2CC[C@H](CCCCN3CCN(c4cc5c(cc4F)c(C4CCC(=O)NC4=O)nn5C)CC3)CC2)cccc1-c1ccc(N2CCc3cccc(C(=O)Nc4nc5ccccc5s4)c3C2)nc1C(=O)O` (stereo partly shown) [Compound 296a, 6-(8-(benzo[d]thiazol-2-ylcarbamoyl)-3,4-dihydroisoquinolin-2(1H)-yl)-3-(3-(((1s,4r)-4-(4-(4-(3-(2,6-dioxopiperidin-3-yl)-5-fluoro-1-methyl-1H-indazol-6-yl)piperazin-1-yl)butyl)cyclohexyl)oxy)-2-methylphenyl)picolinic acid] are “A (Ymin < 50%)” and less than 100 nM.
On to `Cc1c(O[C@H]2CC[C@H](CCCCN3CCN(c4ccc5c(C6CCC(=O)NC6=O)nn(C)c5c4)C[C@H]3C)CC2)cccc1-c1ccc(N2CCc3cccc(C(=O)Nc4nc5ccccc5s4)c3C2)nc1C(=O)O` (stereo partly drawn) [Compound 297a, 6-(8-(benzo[d]thiazol-2-ylcarbamoyl)-3,4-dihydroisoquinolin-2(1H)-yl)-3-(3-(((1s,4r)-4-(4-((2R)-4-(3-(2,6-dioxopiperidin-3-yl)-1-methyl-1H-indazol-6-yl)-2-methylpiperazin-1-yl)butyl)cyclohexyl)oxy)-2-methylphenyl)picolinic acid], for which the “Ymin (24 h)” value was “A (Ymin < 50%)” and the DC50 was less than 100 nM.
The corresponding values for `Cc1c(O[C@H]2CC[C@H](CCCCN3CCN(c4ccc5c(C6CCC(=O)NC6=O)nn(C)c5c4)C[C@@H]3C)CC2)cccc1-c1ccc(N2CCc3cccc(C(=O)Nc4nc5ccccc5s4)c3C2)nc1C(=O)O` (stereo partly drawn) [Compound 297b, 6-(8-(benzo[d]thiazol-2-ylcarbamoyl)-3,4-dihydroisoquinolin-2(1H)-yl)-3-(3-(((1r,4r)-4-(4-((2S)-4-(3-(2,6-dioxopiperidin-3-yl)-1-methyl-1H-indazol-6-yl)-2-methylpiperazin-1-yl)butyl)cyclohexyl)oxy)-2-methylphenyl)picolinic acid] are “A (Ymin < 50%)” and less than 100 nM.
The corresponding values for `Cc1c(O[C@H]2CC[C@H](CCCCN3CCC(c4cccc5c(C6CCC(=O)NC6=O)nn(C)c45)CC3)CC2)cccc1-c1ccc(N2CCc3cccc(C(=O)Nc4nc5ccccc5s4)c3C2)nc1C(=O)O` (stereo partly shown) [Compound 298a, 6-(8-(benzo[d]thiazol-2-ylcarbamoyl)-3,4-dihydroisoquinolin-2(1H)-yl)-3-(3-(((1s,4r)-4-(4-(4-(3-(2,6-dioxopiperidin-3-yl)-1-methyl-1H-indazol-7-yl)piperidin-1-yl)butyl)cyclohexyl)oxy)-2-methylphenyl)picolinic acid] are “A (Ymin < 50%)” and less than 100 nM.
The corresponding values for `Cc1c(O[C@H]2CC[C@H](CCCCN3CCC(c4ccc5c(C6CCC(=O)NC6=O)nn(C)c5c4)CC3)CC2)cccc1-c1ccc(N2CCc3cccc(C(=O)Nc4nc5ccccc5s4)c3C2)nc1C(=O)O` (stereo partly shown) [Compound 299a, 6-(8-(benzo[d]thiazol-2-ylcarbamoyl)-3,4-dihydroisoquinolin-2(1H)-yl)-3-(3-(((1s,4r)-4-(4-(4-(3-(2,6-dioxopiperidin-3-yl)-1-methyl-1H-indazol-6-yl)piperidin-1-yl)butyl)cyclohexyl)oxy)-2-methylphenyl)picolinic acid] are “A (Ymin < 50%)” and less than 100 nM.
For `Cc1c(O[C@H]2CC[C@H](CCCCN3CCN(c4ccc5c(C6CCC(=O)NC6=O)nn(C)c5c4)[C@H](C)C3)CC2)cccc1-c1ccc(N2CCc3cccc(C(=O)Nc4nc5ccccc5s4)c3C2)nc1C(=O)O` (stereo partly drawn) [Compound 300a, 6-(8-(benzo[d]thiazol-2-ylcarbamoyl)-3,4-dihydroisoquinolin-2(1H)-yl)-3-(3-(((1s,4r)-4-(4-((3R)-4-(3-(2,6-dioxopiperidin-3-yl)-1-methyl-1H-indazol-6-yl)-3-methylpiperazin-1-yl)butyl)cyclohexyl)oxy)-2-methylphenyl)picolinic acid], the “Ymin (24 h)” value was “A (Ymin < 50%)” and the DC50 is less than 100 nM.
The corresponding values for `Cc1c(O[C@H]2CC[C@H](CCCCN3CCN(c4ccc5c(C6CCC(=O)NC6=O)nn(C)c5c4)[C@@H](C)C3)CC2)cccc1-c1ccc(N2CCc3cccc(C(=O)Nc4nc5ccccc5s4)c3C2)nc1C(=O)O` (stereo partly drawn) [Compound 300b, 6-(8-(benzo[d]thiazol-2-ylcarbamoyl)-3,4-dihydroisoquinolin-2(1H)-yl)-3-(3-(((1r,4r)-4-(4-((3S)-4-(3-(2,6-dioxopiperidin-3-yl)-1-methyl-1H-indazol-6-yl)-3-methylpiperazin-1-yl)butyl)cyclohexyl)oxy)-2-methylphenyl)picolinic acid] are “A (Ymin < 50%)” and less than 100 nM.
The corresponding values for `Cc1c(O[C@H]2CC[C@H](CCCN3CCN(c4ccc5c(C6CCC(=O)NC6=O)nn(C)c5c4)[C@@H](C(F)(F)F)C3)CC2)cccc1-c1ccc(N2CCc3cccc(C(=O)Nc4nc5ccccc5s4)c3C2)nc1C(=O)O` (stereo partly drawn) [Compound 301a, 6-(8-(benzo[d]thiazol-2-ylcarbamoyl)-3,4-dihydroisoquinolin-2(1H)-yl)-3-(3-(((1s,4r)-4-(3-((3R)-4-(3-(2,6-dioxopiperidin-3-yl)-1-methyl-1H-indazol-6-yl)-3-(trifluoromethyl)piperazin-1-yl)propyl)cyclohexyl)oxy)-2-methylphenyl)picolinic acid] are “A (Ymin < 50%)” and less than 100 nM.
The corresponding values for `Cc1c(O[C@H]2CC[C@H](CCCN3CCN(c4ccc5c(C6CCC(=O)NC6=O)nn(C)c5c4)[C@H](C(F)(F)F)C3)CC2)cccc1-c1ccc(N2CCc3cccc(C(=O)Nc4nc5ccccc5s4)c3C2)nc1C(=O)O` (stereo partly drawn) [Compound 301b, 6-(8-(benzo[d]thiazol-2-ylcarbamoyl)-3,4-dihydroisoquinolin-2(1H)-yl)-3-(3-(((1r,4r)-4-(3-((3S)-4-(3-(2,6-dioxopiperidin-3-yl)-1-methyl-1H-indazol-6-yl)-3-(trifluoromethyl)piperazin-1-yl)propyl)cyclohexyl)oxy)-2-methylphenyl)picolinic acid] are “B (50% ≤ Ymin < 70%)” and less than 100 nM.
Turning to `Cc1c(OCCCC2CCN(CC(=O)Nc3ccc4c(C5CCC(=O)NC5=O)nn(C)c4c3F)CC2)cccc1-c1ccc(N2CCc3cccc(C(=O)Nc4nc5ccccc5s4)c3C2)nc1C(=O)O` (stereo not shown) [Compound 302, 6-[8-(1,3-benzothiazol-2-ylcarbamoyl)-3,4-dihydro-1H-isoquinolin-2-yl]-3-[3-[3-[1-[2-[[3-(2,6-dioxo-3-piperidyl)-7-fluoro-1-methyl-indazol-6-yl]amino]-2-oxo-ethyl]-4-piperidyl]propoxy]-2-methyl-phenyl]pyridine-2-carboxylic acid], the “Ymin (24 h)” value was “B (50% ≤ Ymin < 70%)” and the DC50 is less than 100 nM.

The values above are taken from patent US20240238423A9, “TETRAHYDROISOQUINOLINE HETEROBIFUNCTIONAL BCL-XL DEGRADERS” (Treeline Biosciences, Inc., priority 2022, published 2024).
